Results from PubChem BioAssay AID248 (DTP/NCI, 2004).
Several values for one entry are separate records, joined by “and”; a condition that tells them apart may be missing. Equal entries are not always repeated. Inconclusive results and toxic doses are left out. Cut-off read from the data, not from the text of the source: active = T/C of 150% or more; inactive = T/C below 125%.

Test system: L1210 leukemia ip in BDF1 mice, survival T/C
Experiment: NCI In Vivo Anticancer Drug Screen. Data for tumor model L1210 Leukemia (intraperitoneal) in B6D2F1 (BDF1) mice
Details: endpoint: mean survival time, higher = longer survival
Summary of the method: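 Mice bearing the transplanted tumor received compound or vehicle. Survival of the treated group was divided by that of the vehicle-treated control group to give the ratio.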

[1] = dose: 100.0 mg/kg/injection, schedule: Q01DX009 (ip), vehicle: Klucel (hydroxypropylcellulose) (HPC)
[2] = dose: 100.0 mg/kg/injection, schedule: Q01DX009 (ip), vehicle: saline
[3] = dose: 100.0 mg/kg/injection, schedule: Q04DX003 (ip), vehicle: Klucel (hydroxypropylcellulose) (HPC)
[4] = dose: 100.0 mg/kg/injection, schedule: Q04DX003 (ip), vehicle: saline
[5] = dose: 150.0 mg/kg/injection, schedule: Q01DX009 (ip), vehicle: Klucel (hydroxypropylcellulose) (HPC)
[6] = dose: 400.0 mg/kg/injection, schedule: Q04DX003 (ip), vehicle: Klucel (hydroxypropylcellulose) (HPC)
[7] = dose: 100.0 mg/kg/injection, schedule: Q01DX001 (ip), vehicle: saline
[8] = dose: 100.0 mg/kg/injection, schedule: Q04DX003 (ip), vehicle: saline with Tween-80
[9] = dose: 200.0 mg/kg/injection, schedule: Q04DX003 (ip), vehicle: saline with Tween-80
[10] = dose: 400.0 mg/kg/injection, schedule: Q04DX003 (ip), vehicle: saline with Tween-80
[11] = dose: 200.0 mg/kg/injection, schedule: Q04DX003 (ip), vehicle: Klucel (hydroxypropylcellulose) (HPC)
[12] = dose: 100.0 mg/kg/injection, schedule: Q01DX009 (ip), vehicle: saline with Tween-80
[13] = dose: 200.0 mg/kg/injection, schedule: Q01DX009 (ip), vehicle: saline with Tween-80
[14] = dose: 100.0 mg/kg/injection, schedule: Q01DX001 (ip), vehicle: carboxymethylcellulose (CMC)
[15] = dose: 200.0 mg/kg/injection, schedule: Q01DX001 (ip), vehicle: carboxymethylcellulose (CMC)

Measured: T/C

CCCCCCC(=O)NC1=C(N2CC2)C(=O)C(NC(=O)CCCCCC)=C(N2CC2)C1=O
inactive: dose: 25.0 mg/kg/injection, schedule: Q01DX009 (ip), vehicle: saline 110 % of control | dose: 45.0 mg/kg/injection, schedule: Q01DX009 (ip), vehicle: other 124 % of control | dose: 50.0 mg/kg/injection, schedule: Q01DX009 (ip), vehicle: saline 122 % of control | dose: 51.0 mg/kg/injection, schedule: Q01DX Z (ip), vehicle: carboxymethylcellulose (CMC) 124 % of control | dose: 51.0 mg/kg/injection, schedule: Q01DX Z (ip), vehicle: methylcellulose (MC) 107 % of control | dose: 65.0 mg/kg/injection, schedule: Q01DX009 (ip), vehicle: other 118 % of control | dose: 66.0 mg/kg/injection, schedule: Q01DX009 (ip), vehicle: Klucel (hydroxypropylcellulose) (HPC) 113 % of control | dose: 76.0 mg/kg/injection, schedule: Q01DX Z (ip), vehicle: methylcellulose (MC) 96 % of control | dose: 100.0 mg/kg/injection, schedule: Q01DX001 (ip), vehicle: other 96 % of control | [1] 101 % of control | [2] 123 % of control | [3] 111 % of control | [4] 103 % of control | dose: 115.0 mg/kg/injection, schedule: Q01DX Z (ip), vehicle: carboxymethylcellulose (CMC) 120 % of control | [5] 97 % of control and 99 % of control | dose: 172.5 mg/kg/injection, schedule: Q01DX Z (ip), vehicle: carboxymethylcellulose (CMC) 114 % of control | dose: 200.0 mg/kg/injection, schedule: Q01DX001 (ip), vehicle: other 108 % of control | dose: 200.0 mg/kg/injection, schedule: Q01DX009 (ip), vehicle: other 100 % of control | dose: 200.0 mg/kg/injection, schedule: Q01DX009 (ip), vehicle: saline 94 % of control | dose: 200.0 mg/kg/injection, schedule: Q04DX003 (ip), vehicle: saline 113 % of control | dose: 264.0 mg/kg/injection, schedule: Q04DX003 (ip), vehicle: Klucel (hydroxypropylcellulose) (HPC) 114 % of control | dose: 264.0 mg/kg/injection, schedule: Q04DX003 (ip), vehicle: other 111 % of control | dose: 400.0 mg/kg/injection, schedule: Q01DX001 (ip), vehicle: other 110 % of control | [6] 118 % of control

CC(=O)Nc1cc2c(cc1[N+](=O)[O-])-c1ccccc1C2O (stereo unspecified)
inactive: dose: 25.0 mg/kg/injection, schedule: Q04DX003 (ip), vehicle: saline 94 % of control | dose: 50.0 mg/kg/injection, schedule: Q04DX003 (ip), vehicle: saline 100 % of control | [7] 87 % of control | [2] 102 % of control | [8] 102 % of control | [4] 96 % of control | dose: 150.0 mg/kg/injection, schedule: Q01DX009 (ip), vehicle: saline 92 % of control | [9] 101 % of control | dose: 225.0 mg/kg/injection, schedule: Q01DX009 (ip), vehicle: saline 105 % of control | [10] 104 % of control

Clc1ccc(OCc2sc3ccc(Br)cc3c2CN2CCOCC2)cc1
inactive: dose: 75.0 mg/kg/injection, schedule: Q01DX009 (ip), vehicle: Klucel (hydroxypropylcellulose) (HPC) 100 % of control | [3] 94 % of control | [5] 105 % of control | [11] 96 % of control | dose: 300.0 mg/kg/injection, schedule: Q01DX009 (ip), vehicle: Klucel (hydroxypropylcellulose) (HPC) 95 % of control | [6] 89 % of control

CN(C)C(=S)SC1OC(CO)C(SC(=S)N(C)C)OC1CO (stereo unspecified)
inactive: dose: 50.0 mg/kg/injection, schedule: Q01DX009 (ip), vehicle: saline with Tween-80 97 % of control | [12] 104 % of control | [13] 97 % of control

c1ccc2c(c1)C(=Nc1ccc3ccccc3c1)c1ccccc1-2
inactive: [8] 97 % of control | [9] 88 % of control | [10] 92 % of control

Cc1ccnc(NC(=O)Nc2ccccc2Cl)c1
inactive: dose: 100.0 mg/kg/injection, schedule: Q04DX002 (ip), vehicle: Klucel (hydroxypropylcellulose) (HPC) 90 % of control | dose: 200.0 mg/kg/injection, schedule: Q04DX002 (ip), vehicle: Klucel (hydroxypropylcellulose) (HPC) 93 % of control | dose: 400.0 mg/kg/injection, schedule: Q04DX002 (ip), vehicle: Klucel (hydroxypropylcellulose) (HPC) 118 % of control

CC(=O)NCCc1ccc(S(=O)(=O)F)cc1
inactive: [12] 91 % of control | [13] 102 % of control

CN(C)CCCOc1c2ccccc2cc2ccccc12
inactive: dose: 1.0 mg/kg/injection, schedule: Q01DX015 (ip), vehicle: carboxymethylcellulose (CMC) 92 % of control | dose: 2.0 mg/kg/injection, schedule: Q01DX015 (ip), vehicle: carboxymethylcellulose (CMC) 92 % of control | dose: 4.0 mg/kg/injection, schedule: Q01DX015 (ip), vehicle: carboxymethylcellulose (CMC) 92 % of control | dose: 8.0 mg/kg/injection, schedule: Q01DX015 (ip), vehicle: carboxymethylcellulose (CMC) 104 % of control and 90 % of control | dose: 16.0 mg/kg/injection, schedule: Q01DX015 (ip), vehicle: carboxymethylcellulose (CMC) 98 % of control

CC(=O)N/N=C/c1ccc2c(c1)CCC2
inactive: [8] 97 % of control | [9] 103 % of control

C1CN1P1(N2CC2)=NP(N2CC2)(N2CC2)=NP(N2CC2)(N2CC2)=N1
inactive: dose: 20.0 mg/kg/injection, schedule: Q01DX009 (ip), vehicle: saline 104 % of control
active: dose: 10.0 mg/kg/injection, schedule: Q01DX009 (ip), vehicle: saline 159 % of control | dose: 75.0 mg/kg/injection, schedule: Q01DX001 (ip), vehicle: saline 162 % of control

CC(=O)Nc1c(NN=C(C)C)[nH]c(=O)[nH]c1=O
inactive: dose: 50.0 mg/kg/injection, schedule: Q01DX001 (ip), vehicle: saline 98 % of control | [7] 96 % of control | dose: 200.0 mg/kg/injection, schedule: Q01DX001 (ip), vehicle: saline 102 % of control | dose: 400.0 mg/kg/injection, schedule: Q01DX001 (ip), vehicle: saline 98 % of control

CCN(CC)c1ccc(C(=C(c2ccc(N(CC)CC)cc2)c2ccc(N(CC)CC)cc2)c2ccc(N(CC)CC)cc2)cc1
inactive: dose: 50.0 mg/kg/injection, schedule: Q01DX009 (ip), vehicle: Klucel (hydroxypropylcellulose) (HPC) 88 % of control | [1] 101 % of control | [3] 90 % of control | dose: 200.0 mg/kg/injection, schedule: Q01DX009 (ip), vehicle: Klucel (hydroxypropylcellulose) (HPC) 91 % of control | [11] 101 % of control

On1cnc(=S)c2[nH]cnc21
active: dose: 750.0 mg/kg/injection, schedule: Q01DX Z (ip), vehicle: carboxymethylcellulose (CMC) 156 % of control
inactive: [14] 98 % of control | [15] 98 % of control | dose: 250.0 mg/kg/injection, schedule: Q01DX Z (ip), vehicle: carboxymethylcellulose (CMC) 112 % of control | dose: 400.0 mg/kg/injection, schedule: Q01DX001 (ip), vehicle: carboxymethylcellulose (CMC) 98 % of control | dose: 500.0 mg/kg/injection, schedule: Q01DX001 (ip), vehicle: carboxymethylcellulose (CMC) 100 % of control | dose: 750.0 mg/kg/injection, schedule: Q01DX001 (ip), vehicle: carboxymethylcellulose (CMC) 113 % of control | dose: 1000.0 mg/kg/injection, schedule: Q01DX001 (ip), vehicle: carboxymethylcellulose (CMC) 117 % of control

C=CCOc1cccc(OCC=C)c1C
inactive: [8] 100 % of control | [9] 98 % of control | [10] 98 % of control

CCCC(NC(=O)C(C)N)C(=O)O (stereo unspecified)
inactive: dose: 12.5 mg/kg/injection, schedule: Q04DX002 (ip), vehicle: saline 105 % of control | dose: 25.0 mg/kg/injection, schedule: Q04DX002 (ip), vehicle: saline 102 % of control | dose: 50.0 mg/kg/injection, schedule: Q04DX002 (ip), vehicle: saline 102 % of control

Nc1c(Oc2cccc(C[N+]3(CCOS(=O)(=O)O)CC3)c2)cc(O)c2c1C(=O)c1ccccc1C2=O
inactive: [14] 96 % of control | [15] 93 % of control
